Experiments:
Assay type in all cases: in vivo
[1] = test system: barnyardgrass (Echinochloa crus-galli); assay: Test C flooded paddy test plant response; settings: Flood, 250 g ai/ha; scale of 0 to 100 where 0 is no effect and 100 is complete control; 13 to 15 days
In short: (§1)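 Plants grown to the 2-leaf stage; pots flooded to 3 cm above soil, test compounds applied directly to paddy water, depth maintained throughout. Greenhouse for 13 to 15 days, then visual rating versus controls on a 0–100 scale (0 no effect, 100 complete control).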

[2] = test system: ducksalad (Heteranthera limosa); assay: Test C flooded paddy test plant response; settings: Flood, 250 g ai/ha; scale of 0 to 100 where 0 is no effect and 100 is complete control; 13 to 15 days
In short: as §1

[3] = test system: small-flower umbrella sedge (Cyperus difformis); assay: Test C flooded paddy test plant response; settings: Flood, 250 g ai/ha; scale of 0 to 100 where 0 is no effect and 100 is complete control; 13 to 15 days
In short: as §1

rice (Oryza sativa) = assay: Test C flooded paddy test plant response; settings: Flood, 250 g ai/ha; scale of 0 to 100 where 0 is no effect and 100 is complete control; 13 to 15 days
In short: as §1

[4] = test system: blackgrass (Alopecurus myosuroides); assay: Test B postemergence plant response
In short: (§2)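 Visual injury ratings, 0 = no effect to 100 = complete control, versus untreated controls approximately 10 days after postemergence spraying in greenhouse. Plants were at one- to two-leaf stage, 2 to 10 cm tall, in loam soil/sand blend; a dash denotes no result.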

[5] = test system: galium (catchweed bedstraw, Galium aparine); assay: Test B postemergence plant response
In short: as §2

[6] = test system: barnyardgrass (Echinochloa crus-galli); assay: Test B pre-/postemergence plant response
Excerpt: (§3) Seeds of plant species selected from bamyardgrass (Echinochloa crus-galli), kochia (Kochia scoparia), ragweed (common ragweed, Ambrosia elatior), Italian ryegrass (Lolium multiflorum), large (Lg) crabgrass (Digitaria sanguinalis), giant foxtail (Setaria faberii), momingglory (Ipomoea spp.), pigweed (Amaranthus retroflexus), velvetleaf (Abutilon theophrasti), wheat (Triticum aestivum), and corn (Zea mays) were planted into a blend of loam soil and sand and treated preemergence with a directed soil spray using test chemicals formulated in a non-phytotoxic solvent mixture which included a surfactant. At the same time, plants selected from these crop and weed species and also blackgrass (Alopecurus myosuroides), and galium (catchweed bedstraw, Galium aparine) were planted in pots containing the same blend of loam soil and sand and treated with postemergence applications of test chemicals formulated in the same manner. Plants ranged in height from 2 to 10 cm and were in the one- to two-leaf stage for the postemergence treatment. Treated plants and untreated controls were maintained in a greenhouse for approximately 10 days, after which time all treated plants were compared to untreated controls and visually evaluated for injury. Plant response ratings, summarized in Table B, are based on a 0 to 100 scale where 0 is no effect and 100 is complete control. A dash (-) response means no test result.

[7] = test system: ragweed (common ragweed, Ambrosia elatior); assay: Test B pre-/postemergence plant response
Excerpt: as §3

[8] = test system: pigweed (Amaranthus retroflexus); assay: Test B pre-/postemergence plant response
Excerpt: as §3

[9] = test system: Italian ryegrass (Lolium multiflorum); assay: Test B pre-/postemergence plant response
Excerpt: as §3

kochia (Kochia scoparia) = assay: Test B pre-/postemergence plant response
Excerpt: as §3

[10] = test system: wheat (Triticum aestivum); assay: Test B pre-/postemergence plant response
Excerpt: as §3

[11] = test system: giant foxtail (Setaria faberii); assay: Test B pre-/postemergence plant response
Excerpt: as §3

corn (Zea mays) = assay: Test B pre-/postemergence plant response
Excerpt: as §3

[12] = 125 g ai/ha, postemergence, 0 to 100 scale, 0 no effect, 100 complete control
[13] = Postemergence, 500 g ai/ha, 0 to 100 scale (0 no effect, 100 complete control)
[14] = Preemergence, 125 g ai/ha, 0 to 100 scale where 0 is no effect and 100 is complete control
[15] = Preemergence, 500 g ai/ha, 0 to 100 scale where 0 is no effect and 100 is complete control
[16] = 31 g ai/ha, Postemergence, 0 to 100 scale, 0 no effect, 100 complete control
[17] = 31 g ai/ha, Preemergence, 0 to 100 scale where 0 is no effect and 100 is complete control
[18] = Preemergence, 125 g ai/ha, 0 to 100 scale (0 no effect, 100 complete control)

SMILES | Barnyardgrass plant response rating [1] | Ducksalad plant response rating [2] | Sedge, Umbrella plant response rating [3] | Rice plant response rating (rice (Oryza sativa)) | Plant response rating, Blackgrass [4, 12] | Plant response rating, Galium [5, 12] | Plant response rating, Barnyardgrass [6, 12] | Plant response rating, Ragweed [7, 12] | Plant response rating, Pigweed [8, 12] | Plant response rating, Ryegrass, Italian [9, 12] | Plant response rating, Kochia (kochia (Kochia scoparia); [12]) | Plant response rating, Wheat [10, 12] | Plant response rating, Foxtail, Giant [11, 12] | Plant response rating, Corn (corn (Zea mays); [12]) | Plant response rating, Blackgrass [4, 16] | Plant response rating, Barnyardgrass [6, 16] | Plant response rating, Barnyardgrass [6, 17] | Barnyardgrass plant response rating [6, 18] | Plant response rating, Ragweed [7, 17] | Ragweed plant response rating [7, 18] | also measured
CC(C)n1ncnc1-c1ccccc1Oc1ncc(Cl)cn1 [Compound 123] | 0 | 0 | 30 | 0 | 0 | 0 | 0 | 0 | 0 | 0 | 0 | 0 | 0 | 0 | – | – | – | – | – | – | Plant response rating, Blackgrass [4, 13]: 0; Plant response rating, Galium [5, 13]: 0; Plant response rating, Barnyardgrass [6, 13]: 0; Plant response rating, Barnyardgrass [6, 14]: 0; Plant response rating, Barnyardgrass [6, 15]: 0; Plant response rating, Ragweed [7, 13]: 0; Plant response rating, Ragweed [7, 15]: 0; Plant response rating, Pigweed [8, 13]: 0; Plant response rating, Pigweed [8, 15]: 0; Plant response rating, Ryegrass, Italian [9, 13]: 0; Plant response rating, Ryegrass, Italian [9, 15]: 0; Plant response rating, Kochia (kochia (Kochia scoparia); [13]): 0; Plant response rating, Kochia (kochia (Kochia scoparia); [14]): 0; Plant response rating, Kochia (kochia (Kochia scoparia); [15]): 0; Plant response rating, Wheat [10, 13]: 0; Plant response rating, Foxtail, Giant [11, 13]: 0; Plant response rating, Foxtail, Giant [11, 14]: 0; Plant response rating, Foxtail, Giant [11, 15]: 0; Plant response rating, Corn (corn (Zea mays); [13]): 0
Fc1ccc(-c2cc(C(F)(F)F)no2)c(Oc2ncc(Cl)cn2)c1 [Compound 124] | 0 | 80 | 85 | 0 | 30 | 100 | 20 | 20 | 90 | 0 | 80 | 0 | 20 | 10 | 0 | 0 | 0 | 30 | 0 | 10 | Plant response rating, Pigweed [8, 17]: 40; Pigweed plant response rating [8, 18]: 100; Plant response rating, Ryegrass, Italian [9, 17]: 0; Ryegrass, Italian plant response rating [9, 18]: 10; Plant response rating, Kochia (kochia (Kochia scoparia); [17]): 10; Kochia plant response rating (kochia (Kochia scoparia); [18]): 60; Plant response rating, Foxtail, Giant [11, 16]: 0; Plant response rating, Foxtail, Giant [11, 17]: 20; Foxtail, Giant plant response rating [11, 18]: 100; Plant response rating, Corn (corn (Zea mays); [16]): 0
Fc1ccc(-c2cc(C(F)(F)F)no2)c(Oc2ncc(Br)cn2)c1 [Compound 125] | 0 | 80 | 90 | 0 | 30 | 100 | 30 | 20 | 90 | 10 | 80 | 0 | 20 | 10 | 10 | 10 | 0 | 50 | 0 | 0 | Plant response rating, Pigweed [8, 17]: 0; Pigweed plant response rating [8, 18]: 80; Plant response rating, Ryegrass, Italian [9, 17]: 0; Ryegrass, Italian plant response rating [9, 18]: 10; Plant response rating, Kochia (kochia (Kochia scoparia); [17]): 0; Kochia plant response rating (kochia (Kochia scoparia); [18]): 40; Plant response rating, Foxtail, Giant [11, 16]: 0; Plant response rating, Foxtail, Giant [11, 17]: 10; Foxtail, Giant plant response rating [11, 18]: 90; Plant response rating, Corn (corn (Zea mays); [16]): 0
FC(F)(F)c1cc(-c2c(Cl)cccc2Oc2ncc(Cl)cn2)on1 [Compound 126] | 95 | 100 | 100 | 75 | 90 | 100 | 100 | 40 | 100 | 100 | 90 | 40 | 90 | 70 | 60 | 80 | 90 | 100 | 10 | 10 | Plant response rating, Pigweed [8, 17]: 100; Pigweed plant response rating [8, 18]: 100; Plant response rating, Ryegrass, Italian [9, 17]: 40; Ryegrass, Italian plant response rating [9, 18]: 100; Plant response rating, Kochia (kochia (Kochia scoparia); [17]): 80; Kochia plant response rating (kochia (Kochia scoparia); [18]): 90; Plant response rating, Foxtail, Giant [11, 16]: 60; Plant response rating, Foxtail, Giant [11, 17]: 100; Foxtail, Giant plant response rating [11, 18]: 100; Plant response rating, Corn (corn (Zea mays); [16]): 20
FC(F)(F)c1cc(-c2c(Cl)cccc2Oc2ncc(Br)cn2)on1 [Compound 127] | 50 | 100 | 100 | 60 | 90 | 100 | 100 | 50 | 100 | 90 | 90 | 20 | 90 | 50 | 30 | 30 | 70 | 90 | 10 | 30 | Plant response rating, Pigweed [8, 17]: 100; Pigweed plant response rating [8, 18]: 100; Plant response rating, Ryegrass, Italian [9, 17]: 30; Ryegrass, Italian plant response rating [9, 18]: 90; Plant response rating, Kochia (kochia (Kochia scoparia); [17]): 80; Kochia plant response rating (kochia (Kochia scoparia); [18]): 90; Plant response rating, Foxtail, Giant [11, 16]: 50; Plant response rating, Foxtail, Giant [11, 17]: 100; Foxtail, Giant plant response rating [11, 18]: 100; Plant response rating, Corn (corn (Zea mays); [16]): 20
FC(F)(F)COCc1cc(-c2ccccc2Oc2ncc(Cl)cn2)on1 [Compound 128] | 0 | 0 | 0 | 0 | 20 | 30 | 10 | 10 | 60 | 0 | 50 | 0 | 10 | 10 | 0 | 0 | 0 | 0 | 0 | 0 | Plant response rating, Pigweed [8, 17]: 0; Pigweed plant response rating [8, 18]: 40; Plant response rating, Ryegrass, Italian [9, 17]: 0; Ryegrass, Italian plant response rating [9, 18]: 0; Plant response rating, Kochia (kochia (Kochia scoparia); [17]): 0; Kochia plant response rating (kochia (Kochia scoparia); [18]): 0; Plant response rating, Foxtail, Giant [11, 16]: 0; Plant response rating, Foxtail, Giant [11, 17]: 0; Foxtail, Giant plant response rating [11, 18]: 10; Plant response rating, Corn (corn (Zea mays); [16]): 0
